Data published in US7132427B2, “Quinazolines and uses thereof” (Ariad Pharmaceuticals, Inc., priority 2001, dated 2006).

Assay: Hydroxyapatite assay (hydroxyapatite adsorption chromatography, bone-targeting potential)
Type: physicochemical
Conditions: K=(retention time-void time)/void, corrected using two reference compounds; TSK-Gel HA 1000 HPLC column; linear gradient 10 mM to 500 mM sodium phosphate, 0.15 N NaCl, pH 6.8
Method: Hydroxyapatite is the principal mineral component of bone. Hydroxyapatite adsorption chromatography is used as an assay to evaluate the bone-targeting potential of both individual bone-targeting moieties (“monomers”) and of pharmaceuticals incorporating bone-targeting groups.
Method: The rentention time of a test compound is measured using a linear gradient from 10 mM sodium phosphate, 0.15 N NaCl, pH=6.8 to 500 mM sodium phosphate, 0.15 N NaCl, […] on a TSK-Gel HA 1000 high pressure liquid chromatography column (7.5 mm×75 mm). The rentention time of the compound is expressed in terms of K=(retention time-void time)/void. This K value is corrected using two reference compounds to correct from inter-column and inter-system variation to obtain a K′ value.
Reference Compounds: K′ values were determined for known bone targeted compounds, the bisphosphonate, alendronate and tetracycline.

K′ value: 3.7
Compound: NCCCC(O)(P(=O)(O)O)P(=O)(O)O [Alendronate, alendronate]
